Results: article PMC8543028 (Infection and Drug Resistance, 2021)

Test system: M. tuberculosis-209
Type: cell-based, Mycobacterium tuberculosis

O=[N+]([O-])c1ccc(/C(O)=C/C(=S)S)cc1 [Compound 11e, (Z)-3-hydroxy-3-(4-nitrophenyl)-prop-2-enedithioic acid]
MIC100 in Mtb-209: active
